Assay results reported in patent US12528784B2, “Alkynyl-(heteroaryl)-carboxamide HCN1 inhibitors” (Hoffmann-La Roche Inc., priority 2019, dated 2026).

Key:
[1] = biological target: T1, HCN4 (Homo sapiens, UniProt Q9Y3Q4); test: HCN4 automated patch clamp current inhibition assay (Ionworks Barracuda); type: cell-based; conditions: HEK-293 cells stably expressing HCN4; current inhibition during a hyperpolarizing pulse of -100 mV
T1 construct: expressed in transfected cells
T1 sequence (Q9Y3Q4 1-1203): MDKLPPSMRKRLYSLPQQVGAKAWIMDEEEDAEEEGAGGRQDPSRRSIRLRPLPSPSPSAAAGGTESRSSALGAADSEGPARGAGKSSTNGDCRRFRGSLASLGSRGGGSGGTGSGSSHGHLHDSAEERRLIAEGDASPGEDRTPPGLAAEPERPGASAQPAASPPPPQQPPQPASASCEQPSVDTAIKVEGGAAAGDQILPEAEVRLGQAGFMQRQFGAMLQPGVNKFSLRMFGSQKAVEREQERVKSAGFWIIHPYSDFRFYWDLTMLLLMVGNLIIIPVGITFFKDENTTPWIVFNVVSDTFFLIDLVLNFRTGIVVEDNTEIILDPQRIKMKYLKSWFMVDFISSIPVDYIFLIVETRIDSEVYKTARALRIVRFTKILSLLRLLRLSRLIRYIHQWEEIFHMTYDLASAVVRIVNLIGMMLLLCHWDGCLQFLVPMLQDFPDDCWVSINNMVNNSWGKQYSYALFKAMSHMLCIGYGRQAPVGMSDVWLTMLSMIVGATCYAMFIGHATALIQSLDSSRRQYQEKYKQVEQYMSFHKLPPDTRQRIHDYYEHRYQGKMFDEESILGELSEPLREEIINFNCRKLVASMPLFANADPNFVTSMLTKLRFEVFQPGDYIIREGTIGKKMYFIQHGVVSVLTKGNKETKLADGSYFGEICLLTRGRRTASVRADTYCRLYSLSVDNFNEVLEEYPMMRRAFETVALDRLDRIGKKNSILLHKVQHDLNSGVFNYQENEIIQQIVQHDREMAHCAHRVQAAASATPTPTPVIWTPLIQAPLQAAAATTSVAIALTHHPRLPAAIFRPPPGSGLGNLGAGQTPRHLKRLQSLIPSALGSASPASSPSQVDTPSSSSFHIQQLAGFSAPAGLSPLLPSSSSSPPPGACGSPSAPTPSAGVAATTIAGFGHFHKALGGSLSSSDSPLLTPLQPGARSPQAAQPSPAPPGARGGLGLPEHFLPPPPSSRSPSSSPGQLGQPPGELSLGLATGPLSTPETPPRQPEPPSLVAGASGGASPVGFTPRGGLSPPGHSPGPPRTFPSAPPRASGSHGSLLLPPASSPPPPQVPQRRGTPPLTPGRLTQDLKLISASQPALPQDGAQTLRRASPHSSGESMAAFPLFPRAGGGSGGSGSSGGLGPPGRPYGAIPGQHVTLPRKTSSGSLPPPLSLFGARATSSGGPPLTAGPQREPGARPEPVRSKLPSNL
Procedure: (§1) In vitro, high-throughput cellular electrophysiology was employed to detect voltage- and use-dependence of compounds in single concentration screening and IC50 determination for library and medicinal chemistry profiling compounds in 384 well plates.
(§2) Cell cultures were maintained in DMEM/F12 cell growth media containing FBS and appropriate antibiotics at 37° C., 5% CO2 for a maximum of 20 passages. At a time point of 40-72 hours prior to assay, the expression of HCN protein in the cells is induced by addition of tetracyclin. Cells may be incubated at 27° C. for 2-24 hours of induction. […] Cells were harvested at 80% confluency and resuspended in extracellular buffer and added to wells. A freshly prepared Escin solution was added to intracellular buffer and applied to establish whole cell recording via perforated patch clampling by APC.
(§3) Currents through activated channels were measured directly by APC by employing hyperpolarizing voltage steps. The activation window was increased and stabilized by the addition of cell permeable Br-cAMP. Baselines were established for both use- and voltage-dependence protocols using a −30 mV holding potential and multiple test pulses at −100 mV or by 20 mV steps from −120 to 0 mV, respectively. Test compounds were added after baseline recordings followed by a 10 min incubation, voltage-dependency protocol recording, and use-dependency recording. Data was corrected for baseline and rundown (well based) and normalized for % inhibition (plate based). Five previously reported HCN inhibitors of varying potencies and selectivities and zatebradine were used for run to run and plate to plate quality controls. […] Percent inhibition was analysed at −80, −100, −120 mV of the voltage-dependency protocol and at pulse 0 and 50 of the use-dependency protocols. Selectivity was assessed against HCN2, HCN3, and HCN4 overexpressing cell lines using similar methods. As HCN4 has a slower activation than the other HCN channels, activation was extended to achieve steady state activation.

[2] = biological target: T2, HCN2 (Homo sapiens, UniProt Q9UL51); test: HCN2 automated patch clamp current inhibition assay (Ionworks Barracuda); type: cell-based; conditions: HEK-293 cells stably expressing HCN2; current inhibition during a hyperpolarizing pulse of -100 mV
T2 construct: expressed in transfected cells
T2 sequence (Q9UL51 1-889): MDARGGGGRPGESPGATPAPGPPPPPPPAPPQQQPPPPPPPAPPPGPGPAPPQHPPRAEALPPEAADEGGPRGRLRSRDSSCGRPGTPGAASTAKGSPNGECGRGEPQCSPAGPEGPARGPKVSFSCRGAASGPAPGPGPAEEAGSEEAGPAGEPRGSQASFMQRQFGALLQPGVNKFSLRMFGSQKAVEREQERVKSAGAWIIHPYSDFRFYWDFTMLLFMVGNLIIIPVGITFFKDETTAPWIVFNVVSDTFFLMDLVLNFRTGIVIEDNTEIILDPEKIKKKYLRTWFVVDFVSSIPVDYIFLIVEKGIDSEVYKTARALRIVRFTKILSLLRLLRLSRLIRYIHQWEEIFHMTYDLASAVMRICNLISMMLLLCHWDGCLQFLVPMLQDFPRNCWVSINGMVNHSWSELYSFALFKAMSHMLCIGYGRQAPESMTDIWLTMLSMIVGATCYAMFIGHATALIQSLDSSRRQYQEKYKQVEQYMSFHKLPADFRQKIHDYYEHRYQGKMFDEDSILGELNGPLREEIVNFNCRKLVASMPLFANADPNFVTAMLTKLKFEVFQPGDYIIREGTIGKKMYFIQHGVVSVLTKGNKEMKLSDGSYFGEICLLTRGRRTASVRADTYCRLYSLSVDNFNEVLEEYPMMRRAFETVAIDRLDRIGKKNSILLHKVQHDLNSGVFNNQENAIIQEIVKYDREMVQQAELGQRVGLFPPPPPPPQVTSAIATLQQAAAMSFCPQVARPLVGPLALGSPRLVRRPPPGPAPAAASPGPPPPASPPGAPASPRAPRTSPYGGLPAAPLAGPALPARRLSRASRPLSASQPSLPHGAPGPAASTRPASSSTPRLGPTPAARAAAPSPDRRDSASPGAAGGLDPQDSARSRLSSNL
Procedure: as §1, §2, §3

Row | IC50 [1] | IC50 [2] | Structure (SMILES)
1 | > 40 µM | > 40 µM | Cc1ccc(-n2c(C(N)=O)nc(C#Cc3ccnc(Cl)c3C)c2C)cn1 [Example 1, 4-((2-Chloro-3-methylpyridin-4-yl)ethynyl)-5-methyl-1-(6-methylpyridin-3-yl)-1H-imidazole-2-carboxamide]
2 | > 40 µM | > 40 µM | Cc1ccc(-n2c(C(N)=O)nc(C#Cc3ccnc(Cl)c3F)c2C)cn1 [Example 2, 4-((2-Chloro-3-fluoropyridin-4-yl)ethynyl)-5-methyl-1-(6-methylpyridin-3-yl)-1H-imidazole-2-carboxamide]
3 | > 40 µM | > 40 µM | Cc1ccc(-n2c(C(N)=O)nc(C#Cc3csc(Cl)c3)c2C)cn1 [Example 3, 4-[2-(5-Chlorothiophen-3-yl)ethynyl]-5-methyl-1-(6-methylpyridin-3-yl)imidazole-2-carboxamide]
4 | > 40 µM | 30.6 µM | Cc1ccc(-n2c(C(N)=O)nc(C#Cc3cccc(Cl)c3)c2C)cn1 [Example 4, 4-[2-(3-Chlorophenyl)ethynyl]-5-methyl-1-(6-methyl-3-pyridyl)imidazole-2-carboxamide]
5 | > 40 µM | > 40 µM | Cc1ccc(-n2c(C(N)=O)nc(C#Cc3cccc(C#N)c3)c2C)cn1 [Example 5, 4-((3-Cyanophenyl)ethynyl)-5-methyl-1-(6-methylpyridin-3-yl)-1H-imidazole-2-carboxamide]
6 | > 40 µM | > 40 µM | Cc1ccc(-n2c(C(N)=O)nc(C#Cc3ccnc(Cl)c3)c2C)cn1 [Example 6, 4-(2-Chloro-pyridin-4-ylethynyl)-5-methyl-1-(6-methyl-pyridin-3-yl)-1H-imidazole-2-carboxylic Acid Amide]
7 | > 40 µM | > 40 µM | COc1cccc(C#Cc2nc(C(N)=O)n(-c3ccc(C)nc3)c2C)c1 [Example 8, 4-((3-Methoxyphenyl)ethynyl)-5-methyl-1-(6-methylpyridin-3-yl)-1H-imidazole-2-carboxamide]
8 | > 40 µM | > 40 µM | Cc1cccc(C#Cc2nc(C(N)=O)n(-c3ccc(C)nc3)c2C)c1 [Example 10, 5-Methyl-1-(6-methylpyridin-3-yl)-4-(m-tolylethynyl)-1H-imidazole-2-carboxamide]
9 | > 40 µM | > 40 µM | Cc1cnc(-n2c(C(N)=O)nc(C#Cc3ccnc(Cl)c3C)c2C)cn1 [Example 23, 4-[2-(2-Chloro-3-methyl-4-pyridyl)ethynyl]-5-methyl-1-(5-methylpyrazin-2-yl)imidazole-2-carboxamide]
10 | > 40 µM | > 40 µM | Cc1c(C#Cc2nc(C(N)=O)n(-c3ccc(Cl)nc3)c2C)ccnc1Cl [Example 26, 4-[2-(2-Chloro-3-methyl-4-pyridyl)ethynyl]-1-(6-chloro-3-pyridyl)-5-methyl-imidazole-2-carboxamide]
11 | > 40 µM | > 40 µM | COc1ccc(-n2c(C(N)=O)nc(C#Cc3ccnc(Cl)c3C)c2C)cn1 [Example 27, 4-[2-(2-Chloro-3-methyl-4-pyridyl)ethynyl]-1-(6-methoxy-3-pyridyl)-5-methyl-imidazole-2-carboxamide]
12 | > 40 µM | > 40 µM | Cc1ccc(-n2c(C(N)=O)nc(C#Cc3ccnc(Cl)c3C)c2C)nc1 [Example 28, 4-[2-(2-Chloro-3-methyl-4-pyridyl)ethynyl]-5-methyl-1-(5-methyl-2-pyridyl)imidazole-2-carboxamide]
13 | > 40 µM | > 40 µM | Cc1ccc(-n2c(C(N)=O)cc(C#Cc3ccnc(Cl)c3)c2C)cn1 [Example 31, 4-[2-(2-Chloro-4-pyridyl)ethynyl]-5-methyl-1-(6-methyl-3-pyridyl)pyrrole-2-carboxamide]
14 | > 40 µM | > 40 µM | Cc1ccc(-c2c(C(N)=O)nc(C#Cc3ccnc(Cl)c3)n2C)cn1 [Example 32, 2-[2-(2-Chloro-4-pyridyl)ethynyl]-1-methyl-5-(6-methyl-3-pyridyl)imidazole-4-carboxamide]
15 | > 40 µM | > 40 µM | Cc1ccc(-n2c(C(N)=O)nc(C#Cc3ccnc(Cl)c3)c2C)cc1 [Example 38, 4-[2-(2-Chloro-4-pyridyl)ethynyl]-5-methyl-1-(p-tolyl)imidazole-2-carboxamide]
16 | > 40 µM | > 40 µM | Cc1c(C#Cc2ccnc(Cl)c2)nc(C(N)=O)n1-c1ccc(Cl)cc1 [Example 39, 1-(4-Chlorophenyl)-4-((2-chloropyridin-4-yl)ethynyl)-5-methyl-1H-imidazole-2-carboxamide]
17 | > 40 µM | > 40 µM | NC(=O)c1nc(C#Cc2ccnc(Cl)c2)cn1-c1ccc(F)cc1 [Example 42, 4-(2-Chloro-pyridin-4-ylethynyl)-1-(4-fluoro-phenyl)-1H-imidazole-2-carboxylic Acid Amide]
